Like-named read-outs stand apart in the source and are kept apart here.
Tests used:
[1] = tested on: human stomach cancer cell line SNU-16 (FGFR2 gene amplification); assay: SNU-16 growth inhibition assay; type: cell-based
Description: In this assay, the growth inhibitory activity of a test substance in a human stomach cancer cell line harboring FGFR2 gene amplification is measured.
Then, 10 μL of Cell Counting Kit-8 (Dojindo Laboratories, CK04) was added to each well, and the resultant was incubated for 1 to 2 hours in a 5% CO2 incubator (37° C.) to cause a color reaction. The absorbance value was measured with ENVISION™ (PerkinElmer Co., Ltd.) at 450 nm.

[2] = tested on: normal human umbilical vein endothelial cells (HUVEC); assay: HUVEC growth inhibition assay (VEGF-induced); type: cell-based
Description: The absorbance value was measured with ENVISION™ (PerkinElmer Co., Ltd.) at 450 nm. The absorbance values of the wells without adding the test substance but with VEGF addition was defined as 100% and the absorbance values of the wells with neither the test substance nor VEGF addition was defined as 0%.

[3] = tested on: human stomach cancer cell line SNU-16 xenograft; assay: Antitumor effect in SNU-16 subcutaneous xenograft model in mice; type: in vivo; conditions: oral, once a day for 11 days, tumor volume last day
Source text: Human stomach cancer cell line SNU-16, which had been cultured in an RPMI-1640 medium containing 10% FBS, and penicillin and streptomycin, were adjusted to a concentration of 1×10^8 cells/mL with Hanks' Balanced Salt Solution (GIBCO #24020) to prepare a cell suspension, and the suspension was mixed with […] (BD Biosciences, Cat#354234) in a ratio of 1:1 to prepare a cell suspension in a concentration of 5×10^7 cells/ml. The cell suspension was inoculated in a volume of 100 ut into a subcutaneous part of a right flank of nude mice, 6 to 7 weeks of ages (BALB/cAiel-nu/nu, female, Clea Japan Inc.). Seven days after cell inoculation, the shortest diameter and the longest diameter of a tumor in each mouse were measured by using an electronic digital caliper (Digimatie™ caliper, Mitutoyo Corporation), so as to calculate the volume of the tumor in accordance with the following calculation formula: Tumor volume(mm^3)Longest diameter(mm)×Shortest diameter(mm)×Shortest diameter(mm)/2
On the basis of the volumes of tumors obtained on the first day of administration, the nude mice were grouped such that averages of the tumor volumes were substantially equal among the groups. Each test substance was dissolved in DMSO, Tween 80 was added thereto to prepare a solution in a 10-fold concentration and the thus prepared solution was stored at the freezer before use. Immediately before the administration, the stock solution was diluted with a 5% glucose solution to obtain a final administration solution (in which a ratio in % among DMSO, Tween 80 and the 5% glucose solution was 3.5:6.5:90). Each evaluation sample was orally administered to test substance administration group at a volume of 0.4 mL per 20 g of body weight once a day continuously for 11 days, and in a control group, an administration solvent was orally administered under the same conditions. Incidentally, the experiment was conducted on groups each consisting of 5 mice.
With respect to each of the control group and test substance administration group, a ratio of the weight measured on the final day to the weight measured on the first day (relative body weight: RBW) was calculated. If a ratio of the RBW of the test substance administration group/the RBW of the control group is 0.9 or mom, the corresponding test substance administration group was defined as a well-tolerated. In the test substance administration group thus defined as well-tolerated, a ratio of the tumor volume of the test substance-dosing group to the tumor volume of the control group obtained on the last day (TIC) (%) was calculated, and shown in Table 21.

[4] = Homo sapiens, SNU-16, 72 h, read-out: SNU-16 (IC50 (nM)), cell growth, 3 days, Cell Counting Kit-8
[5] = Homo sapiens, HUVEC, 72 h, read-out: HUVEC (IC50 (nM)), growth in the presence of VEGF 10 ng/mL, 3 days

Row | Structure (SMILES) | IC50 [1, 4] [nM] | IC50 [2, 5] [nM] | also measured
1 | CNC(=O)n1ccc2cc(Oc3ccnc(NC(=O)c4ccc(C5CN(C[C@@H](C)O)C5)cc4)c3)c(OCCOC)cc21 [Example 80] | 3.8 | 182 | –
2 | CNC(=O)n1ccc2cc(Oc3ccnc(NC(=O)c4ccc(C5CN(C[C@@H](C)O)C5)cc4)c3)c(OCCCOC)cc21 [Example 118] | 8.6 | 183 | –
3 | CCN1CCN(Cc2ccc(C(=O)Nc3cc(Oc4cc5ccn(C(=O)NC)c5cc4OC)ccn3)s2)CC1 [Example 37] | 9.4 | 79.1 | –
4 | CNC(=O)n1ccc2cc(Oc3ccnc(NC(=O)c4ccc(C5CCN(C[C@H](C)O)CC5)cc4)c3)c(OC)cc21 [Example 4, (S)-5-((2-(4-(1-(2-Hydroxypropyl)piperidin-4-yl)benzamide)pyridin-4-yl)oxy)-6-methoxy-N-methyl-1H-indole-1-carboxamide] | – | – | T/C (%) ([3]; 6.25 mg/kg): 40%; T/C (%) ([3]; 12.5 mg/kg): 27%; T/C (%) ([3]; 25 mg/kg): 15%
5 | CCN1CCC(n2cc(C(=O)Nc3cc(Oc4cc5ccn(C(=O)NC)c5cc4OC)ccn3)cn2)CC1 [Example 13, 5-((2-(1-(1-Ethylpiperidin-4-yl)-1H-pyrazole-4-carboxamide)pyridin-4-yl)oxy)-6-methoxy-N-methyl-1H-indole-1-carboxamide] | 10.9 | 396 | –
6 | CNC(=O)n1ccc2cc(Oc3ccnc(NC(=O)c4ccc(CN5CCC(O)CC5)cc4)c3)c(OCCCOC)cc21 [Example 122] | 11.3 | 494 | –
7 | CCOc1cc2c(ccn2C(=O)NC)cc1Oc1ccnc(NC(=O)c2ccc(N3CCC(N4CCCC4)CC3)cc2)c1 [Example 62] | 27.4 | 223 | –
8 | CCOCCOc1cc2c(ccn2C(=O)NC)cc1Oc1ccnc(NC(=O)c2ccc(CN3CC[C@@H](O)C3)s2)c1 [Example 100] | – | – | IC50 ([1]; read-out: SNU-16 (IC50 (nM)), cell growth, 3 days, Cell Counting Kit-8): 5.8 nM; IC50 ([2]; read-out: HUVEC (IC50 (nM)), growth in the presence of VEGF 10 ng/mL, 3 days): 207 nM
9 | CNC(=O)n1ccc2cc(Oc3ccnc(NC(=O)c4ccc(C5CCNCC5F)cc4)c3)c(OC)cc21 (stereo not shown) [Example 6, 5-((2-(4-(3-Fluoropiperidin-4-yl)benzamide)pyridin-4-yl)oxy)-6-methoxy-N-methyl-1H-indole-1-carboxamide] | 9.1 | 180 | –
10 | CCOc1cc2c(ccn2C(=O)NC)cc1Oc1ccnc(NC(=O)c2ccc(C3CCN(CCO)CC3)cc2)c1 [Example 63] | 9.6 | 170 | –
11 | CNC(=O)n1ccc2cc(Oc3ccnc(NC(=O)c4ccc(C5CCN(C(C)C)CC5)cc4)c3)c(OCCOC)cc21 [Example 23, 5-((2-(4-(1-Isopropylpiperidin-4-yl)benzamide)pyridin-4-yl)oxy)-6-(2-methoxyethoxy)-N-methyl-1H-indole-1-carboxamide] | 6.5 | 300 | –
12 | CCOCCOc1cc2c(ccn2C(=O)NC)cc1Oc1ccnc(NC(=O)c2ccc(CN3CCC[C@@H]3CO)s2)c1 [Example 98] | 6.3 | 228 | –
13 | CCN1CCC(c2ccc(C(=O)Nc3cc(Oc4cc5ccn(C(=O)NC)c5cc4OCCOC)ccn3)cc2)CC1 [Example 92] | 5.8 | 182 | –
14 | CNC(=O)n1ccc2cc(Oc3ccnc(NC(=O)c4ccc(CN5CC[C@H](O)C5)cc4)c3)c(OC)cc21 [Example 52] | 14.4 | 388 | –
15 | CCN1CCC(Oc2ccc(C(=O)Nc3cc(Oc4cc5ccn(C(=O)NC)c5cc4OC)ccn3)cc2)CC1 [Example 43] | 11.8 | 166 | –
16 | CNC(=O)n1ccc2cc(Oc3ccnc(NC(=O)c4ccc(C5CN(CC(C)(C)O)C5)cc4)c3)c(OC)cc21 [Example 48] | 11.7 | 77.8 | –
17 | CNC(=O)n1ccc2cc(Oc3ccnc(NC(=O)c4ccc(CN5CCC(O)CC5)s4)c3)c(OC)cc21 [Example 38] | 8 | 137 | –
18 | CCOCCOc1cc2c(ccn2C(=O)NC)cc1Oc1ccnc(NC(=O)c2ccc(CN3CC[C@H](O)C3)cc2)c1 [Example 105] | 7.8 | 687 | –

Row | Structure (SMILES) | IC50 [1, 4] [nM] | IC50 [2, 5] [nM] | also measured
19 | CNC(=O)n1ccc2cc(Oc3ccnc(NC(=O)c4ccc(CN5CCC[C@H]5CO)s4)c3)c(OC)cc21 [Example 35] | 9.8 | 139 | –
20 | CNC(=O)n1ccc2cc(Oc3ccnc(NC(=O)c4ccc(C5CCN(C)CC5)cc4)c3)c(OC)cc21 [Example 57] | 7.6 | 127 | –
21 | CNC(=O)n1ccc2cc(Oc3ccnc(NC(=O)c4ccc(C5CCN(C)CC5)cc4)c3)c(OCCCF)cc21 [Example 76] | 7.5 | 248 | –
22 | CNC(=O)n1ccc2cc(Oc3ccnc(NC(=O)c4ccc(C5CCN(C(C)C)CC5)cc4)c3)c(OC)cc21 [Example 40] | 8.3 | 162 | –
23 | CCOCCOc1cc2c(ccn2C(=O)NC)cc1Oc1ccnc(NC(=O)c2ccc(CN3CCC[C@H]3CO)s2)c1 [Example 99] | 6.3 | 224 | –
24 | CNC(=O)n1ccc2cc(Oc3ccnc(NC(=O)c4ccc(C5CCN(C[C@H](C)O)CC5)cc4)c3)c(OCCCOC)cc21 [Example 126] | 6.6 | 197 | –
25 | CNC(=O)n1ccc2cc(Oc3ccnc(NC(=O)c4ccc(CN5CCC(O)CC5)cc4)c3)c(OCCOC)cc21 [Example 93] | 17.6 | 887 | –
26 | CCN1CCC(c2ccc(C(=O)Nc3cc(Oc4cc5ccn(C(=O)NC)c5cc4OCCCF)ccn3)cc2)CC1 [Example 33, 5-((2-(4-(1-Ethylpiperidin-4-yl)benzamide)pyridin-4-yl)oxy)-6-(3-fluoropropoxy)-N-methyl-1H-indole-1-carboxamide] | 8.1 | 274 | –
27 | CCOc1cc2c(ccn2C(=O)NC)cc1Oc1ccnc(NC(=O)c2ccc(C3CCN(C[C@H](C)O)CC3)cc2)c1 [Example 61] | 10.7 | 182 | –
28 | CCOCCOc1cc2c(ccn2C(=O)NC)cc1Oc1ccnc(NC(=O)c2ccc(CN3CCC[C@H]3CO)cc2)c1 [Example 29] | 8.8 | 600 | –
29 | CNC(=O)n1ccc2cc(Oc3ccnc(NC(=O)c4ccc(C5CCN(CC(C)(C)O)CC5)cc4)c3)c(OC)cc21 [Example 39] | 7.8 | 124 | –
30 | CCN1CCN(CCOc2ccc(C(=O)Nc3cc(Oc4cc5ccn(C(=O)NC)c5cc4OC)ccn3)cc2)CC1 [Example 55] | 20.8 | 201 | –
31 | CNC(=O)n1ccc2cc(Oc3ccnc(NC(=O)c4ccc(C5CCN(CCCF)CC5)cc4)c3)c(OC)cc21 [Example 5, 5-((2-(4-(1-(3-Fluoropropyl)piperidin-4-yl)benzamide)pyridin-4-yl)oxy)-6-methoxy-N-methyl-1H-indole-1-carboxamide] | 13.4 | 387 | –
32 | CNC(=O)n1ccc2cc(Oc3ccnc(NC(=O)c4ccc(C5CCN(C)CC5)cc4)c3)c(OCCCOC)cc21 [Example 130] | 6.8 | 254 | –
33 | CNC(=O)n1ccc2cc(Oc3ccnc(NC(=O)c4ccc(C5CN(C[C@H](C)O)C5)cc4)c3)c(OCCCOC)cc21 [Example 119] | 11.9 | 242 | –
34 | CNC(=O)n1ccc2cc(Oc3ccnc(NC(=O)c4ccc(CN5CCC[C@H]5CO)cc4)c3)c(OC)cc21 [Example 51] | 12.5 | 410 | –
35 | CNC(=O)n1ccc2cc(Oc3ccnc(NC(=O)c4ccc(C5CN(C[C@H](C)O)C5)cc4)c3)c(OCCOC)cc21 [Example 81] | 3.8 | 126 | –
36 | CCOCCOc1cc2c(ccn2C(=O)NC)cc1Oc1ccnc(NC(=O)c2ccc(C3CN(C(C)C)C3)cc2)c1 [Example 103] | 5.4 | 296 | –

— US8933099B2, “Monocyclic pyridine derivative” (Eisai R&D Management Co., Ltd., priority 2013, dated 2015)
